ChEMBL document CHEMBL4402538, “Mycobacterial tryptophan biosynthesis: A promising target for tuberculosis drug development?” (Bioorg Med Chem Lett, 2019)
Values after ≈ are worked out from the molar mass of the structure shown.

Experiments:
[1] = tested on: Mycobacterium tuberculosis; assay: Antimycobacterial activity against isoniazid resistant Mycobacterium tuberculosis BAA-812 incubated for 2 weeks; assay type: functional; conditions: BAA-812, 336 h
[2] = tested on: Mycobacterium tuberculosis; assay: Antimycobacterial activity against isoniazid/streptomycin resistant Mycobacterium tuberculosis 01-R0348 incubated for 2 weeks; assay type: functional; conditions: 01-R0348, 336 h
[3] = tested on: Mycobacterium tuberculosis; assay: Antimycobacterial activity against ofloxacin resistant Mycobacterium tuberculosis CI-10 incubated for 2 weeks; assay type: functional; conditions: CI-10, 336 h
[4] = tested on: Mycobacterium tuberculosis; assay: Antimycobacterial activity against streptomycin resistant Mycobacterium tuberculosis 98-01436 incubated for 2 weeks; assay type: functional; conditions: 98-01436, 336 h
[5] = tested on: Mycobacterium tuberculosis; assay: Antimycobacterial activity against ofloxacin/isoniazid resistant Mycobacterium tuberculosis CI-14 incubated for 2 weeks; assay type: functional; conditions: CI-14, 336 h
[6] = Inhibition of Mycobacterium tuberculosis Anthranilate phosphoribosyltransferase expressed in Escherichia coli BL21(DE3) pRIL cells harboring PRAI-InGPS preincubated for 10 mins followed by anthranilate addition in presence of PRPP
[7] = tested on: Mycobacterium tuberculosis; assay: Inhibition of Mycobacterium tuberculosis Anthranilate phosphoribosyltransferase expressed in Escherichia coli BL21(DE3) pRIL cells harboring PRAI-InGPS assessed as residual activity preincubated for 10 mins followed by anthranilate addition in presence of PRPP relative to control

N#C[C@@H]1N[C@@H](CO)[C@H]1c1ccc(-c2ccccc2F)cc1
MIC90 [1]: 3 µM (≈ 0.847 µg/mL) | MIC90 [2]: 1.6 µM (≈ 0.452 µg/mL) | MIC90 [3]: 1.6 µM (≈ 0.452 µg/mL) | MIC90 [4]: 1.6 µM (≈ 0.452 µg/mL) | MIC90 [5]: 3 µM (≈ 0.847 µg/mL)

Cc1cccc(C(=O)O)c1Nc1cc(Cl)ccc1C(=O)O
IC50 [6]: 5.8 µM

Cc1ccc(C(=O)O)c(Nc2c(C)cccc2C(=O)O)c1
IC50 [6]: 6.8 µM

O=C(O)c1ccccc1Nc1cccc(Nc2ccccc2C(=O)O)c1C(=O)O
IC50 [6]: 2.2 µM | Activity [7]: 6%

Cc1cccc(C(=O)O)c1Nc1cc(Br)ccc1C(=O)O
IC50 [6]: 3.3 µM
